# In PubChem BioAssay AID1053207 (Broad Institute, 2014):
# Active and inactive are the calls of the source. How the calls were made is not given here.
# Tests used:
# [1] = system: Vaccinia-infected cells, mCherry/Venus stage reporter fluorescence; experiment: Vaccinia stage specific inhibitors, mCherry reporter channel, infected cells, confirmatory dose response (AID 1053207)
# [2] = as above; conditions: Vaccinia-infected cells, mCherry/Venus stage reporter fluorescence; for max activity: measured here: Venus reporter max activity
# [3] = measured here: mCherry reporter channel
SMILES,AC50 [1] [nM],"AC50 [1, 3] [nM]",max activity ([2]; at 2.6 µM) [%],AC50 ([1]; measured here: Venus reporter channel) [nM],"activity change, negative = inhibition ([2]; at 19.5 µM (top of the series))",max activity ([2]; at 10 µM) [%],max activity ([2]; at 1.2 µM) [%]
Cc1cccc(-c2ccc(CN(C)C[C@@H]3Oc4cc(C#C[C@@H](C)O)ccc4S(=O)(=O)N([C@@H](C)CO)C[C@@H]3C)cc2)c1,1660,1660,140,,,,
C[C@@H](O)C#Cc1ccc2c(c1)O[C@@H](CN(C)Cc1ccc(-c3ccccc3Cl)cc1)[C@@H](C)CN([C@@H](C)CO)S2(=O)=O,1190,1190,145,,,,
C[C@@H](O)C#Cc1ccc2c(c1)O[C@@H](CN(C)S(=O)(=O)c1ccc(-c3ccccc3)cc1)[C@@H](C)CN([C@@H](C)CO)S2(=O)=O,,> 39000,,> 39000,-18.5% (inactive),-14.6,
C[C@@H](O)C#Cc1ccc2c(c1)O[C@@H](CN(C)Cc1ccc(-c3ccccc3)cc1)[C@@H](C)CN([C@@H](C)CO)S2(=O)=O,2350,2350,115,,,,
Cc1ccccc1-c1ccc(CN(C)C[C@@H]2Oc3cc(C#C[C@@H](C)O)ccc3S(=O)(=O)N([C@@H](C)CO)C[C@@H]2C)cc1,1230,1230,157,,,,
Cc1ccc(-c2ccc(CN(C)C[C@@H]3Oc4cc(C#C[C@@H](C)O)ccc4S(=O)(=O)N([C@@H](C)CO)C[C@@H]3C)cc2)cc1,1250,1250,,,,,122
